Each block holds one molecule with its values, some of them ahead of it. The source made the active and inactive calls. The calls are words filed in the database; no cut-off is given here.
How the values were obtained:
[1] = AUC (0 to t) in ICR mouse at 3 mg/kg, po measured upto 24 hrs by LC-MS/MS analysis; format: ADME, organism-based; details: in vivo
[2] = tested on: CAL-27; experiment: Inhibition of cell migration in human CAL-27 cells at 1 to 1000 nM incubated for 24 hrs by wound healing assay; format: functional, cell-based; details: dose 1-1000 nM
[3] = species: Homo sapiens; experiment: Inhibition of V-ATPase activity in lysosome of human CAL-27 cells using Lyso-Tracker Red as fluorescent probe assessed as decrease in fluorescence intensity at 0.25 uM incubated for 24 hrs by flow cytometry analysis
[4] = tested on: SCC-25; experiment: Antiproliferative activity against human SCC-25 cells assessed as inhibition rate at 0.1 uM incubated for 72 hrs by MTT assay relative to control; format: functional
[5] = tested on: CAL-27; experiment: Induction of cell cycle arrest in human CAL-27 cells assessed as downregulation of cyclin D1 expression incubated for 24 hrs by Western blotting analysis; format: functional, cell-based; details: dose 1-1000 nM
[6] = tested on: Jurkat; experiment: Cytotoxicity against human Jurkat cells incubated for 72 hrs by MTT assay; format: functional, cell-based
[7] = tested on: CAL-27; experiment: Induction of cell cycle arrest in human CAL-27 cells assessed as downregulation of CDK4 expression incubated for 24 hrs by Western blotting analysis; format: functional, cell-based; details: dose 1-1000 nM
[8] = tested on: CAL-27; experiment: Induction of apoptosis in human CAL-27 cells assessed as necrotic cells at 100 nM incubated for 72 hrs by Annexin V-FITC/propidium iodide staining based flow cytometry analysis (reference value: 0.03%); format: functional
[9] = tested on: K562; experiment: Cytotoxicity against human K562 cells incubated for 72 hrs by MTT assay; format: functional, cell-based; details: K562, 72 h
[10] = Cytotoxicity against human NCI-H322 cells incubated for 72 hrs by MTT assay; format: functional, cell-based; details: NCI-H322, 72 h
[11] = Antiproliferative activity against human WSU HN-30 cells assessed as inhibition rate at 0.1 uM incubated for 72 hrs by MTT assay relative to control; format: functional; details: WSU-HN30
[12] = tested on: SCC-25; experiment: Cytotoxicity against human SCC-25 cells incubated for 72 hrs by MTT assay; format: functional, cell-based; details: SCC-25, 72 h
[13] = Cytotoxicity against human […] incubated for 72 hrs by MTT assay; format: functional, cell-based; details: WSU-HN30, 72 h
[14] = Cytotoxicity against human L02 cells incubated for 72 hrs by MTT assay; format: toxicity, cell-based
[15] = tested on: SK-BR-3; experiment: Cytotoxicity against human SK-BR-3 cells incubated for 72 hrs by MTT assay; format: functional, cell-based; details: SK-BR-3, 72 h
[16] = tested on: SNU-449; experiment: Cytotoxicity against human SNU-449 cells incubated for 72 hrs by MTT assay; format: functional, cell-based; details: SNU-449, 72 h
[17] = Cmax in ICR mouse at 1 mg/kg, iv measured upto 24 hrs by LC-MS/MS analysis; format: ADME, organism-based; details: in vivo
[18] = Half life in ICR mouse at 1 mg/kg, iv measured upto 24 hrs by LC-MS/MS analysis; format: ADME, organism-based; details: in vivo
[19] = Cmax in ICR mouse at 3 mg/kg, po measured upto 24 hrs by LC-MS/MS analysis; format: ADME, organism-based; details: in vivo
[20] = tested on: MDA-MB-231; experiment: Cytotoxicity against human MDA-MB-231 cells incubated for 72 hrs by MTT assay; format: functional, cell-based; details: MDA-MB-231, 72 h
[21] = tested on: SNU-182; experiment: Cytotoxicity against human SNU-182 cells incubated for 72 hrs by MTT assay; format: functional, cell-based; details: SNU-182, 72 h
[22] = tested on: CAL-27; experiment: Antitumor activity against human CAL-27 cells xenografted in BALB/c mouse model assessed as tumor volume change at 0.6 mg/kg, iv treated four times a week for 30 days; format: functional; details: CAL-27, 720 h, time 30 day, read-out: TGI
[23] = tested on: ASPC1; experiment: Cytotoxicity against human ASPC1 cells incubated for 72 hrs by MTT assay; format: functional, cell-based; details: ASPC1, 72 h
[24] = tested on: PANC-1; experiment: Cytotoxicity against human PANC-1 cells incubated for 72 hrs by MTT assay; format: functional, cell-based; details: PANC-1, 72 h
[25] = tested on: CAL-27; experiment: Antiproliferative activity against human CAL-27 cells assessed as inhibition rate at 0.1 uM incubated for 72 hrs by MTT assay relative to control; format: functional
[26] = Antiproliferative activity against human L02 cells assessed as inhibition rate at 0.1 uM incubated for 72 hrs by MTT assay relative to control; format: toxicity, cell-based
[27] = tested on: KYSE-510; experiment: Cytotoxicity against human KYSE-510 cells incubated for 72 hrs by MTT assay; format: functional, cell-based; details: KYSE-510, 72 h
[28] = tested on: SCC-9; experiment: Cytotoxicity against human SCC-9 cells incubated for 72 hrs by MTT assay; format: functional, cell-based; details: SCC-9, 72 h
[29] = tested on: CAL-27; experiment: Antitumor activity against human CAL-27 cells xenografted in BALB/c mouse model assessed as reduction in tumor weight at 0.6 mg/kg, iv treated four times a week for 30 days; format: functional; set-up: scale not given: the % may be the effect or the level left; details: time 30 day
[30] = tested on: CAL-27; experiment: Cytotoxicity against human CAL-27 cells incubated for 72 hrs by MTT assay; format: functional, cell-based; details: CAL-27, 72 h
[31] = Cytotoxicity against human HN-6 cells incubated for 72 hrs by MTT assay; format: functional, cell-based; details: HN-6, 72 h
[32] = tested on: CAL-27; experiment: Induction of apoptosis in human CAL-27 cells assessed as necrotic cells at 1 nM incubated for 72 hrs by Annexin V-FITC/propidium iodide staining based flow cytometry analysis (reference value: 0.03%); format: functional
[33] = Antiproliferative activity against human HN-6 cells assessed as inhibition rate at 0.1 uM incubated for 72 hrs by MTT assay relative to control; format: functional
[34] = tested on: CAL-27; experiment: Induction of apoptosis in human CAL-27 cells assessed as necrotic cells at 10 nM incubated for 72 hrs by Annexin V-FITC/propidium iodide staining based flow cytometry analysis (reference value: 0.03%); format: functional
[35] = tested on: CAL-27; experiment: Antiproliferative activity against human CAL-27 cells assessed as inhibition of cell communities at 10 uM treated for 11 days by plate clone formation assay; format: functional, cell-based; details: time 11.0 day
[36] = Oral bioavailability in ICR mouse at 3 mg/kg measured upto 24 hrs by LC-MS/MS analysis; format: ADME, organism-based; details: in vivo
[37] = AUC (0 to t) in ICR mouse at 1 mg/kg, iv measured upto 24 hrs by LC-MS/MS analysis; format: ADME, organism-based; details: in vivo
[38] = tested on: HepG2; experiment: Cytotoxicity against human HepG2 cells incubated for 72 hrs by MTT assay; format: functional, cell-based; details: HepG2, 72 h
[39] = Plasma clearance in ICR mouse at 1 mg/kg, iv measured upto 24 hrs by LC-MS/MS analysis; format: ADME, organism-based
[40] = tested on: SCC-9; experiment: Antiproliferative activity against human SCC-9 cells assessed as inhibition rate at 0.1 uM incubated for 72 hrs by MTT assay relative to control; format: functional
[41] = species: Homo sapiens; experiment: Inhibition of V-ATPase activity in lysosome of human CAL-27 cells using Lyso-Tracker Red as fluorescent probe assessed as decrease in fluorescence intensity at 0.5 uM incubated for 24 hrs by flow cytometry analysis
[42] = tested on: CAL-27; experiment: Induction of apoptosis in human CAL-27 cells assessed as necrotic cells at 1000 nM incubated for 72 hrs by Annexin V-FITC/propidium iodide staining based flow cytometry analysis (reference value: 0.03%); format: functional
[43] = Toxicity in BALB/c mouse xenografted with human CAL-27 cells assessed as body weight at 0.6 mg/kg, iv treated four times a week for 30 days; format: organism-based; details: in vivo, 720 h, time 30 day

AUC(0-t) at 24 h [1]: 338 ng·h/mL
Activity [3]: Active
Cmax [17]: 609 ng/mL
half-life [18]: 31.8 min
Cmax [19]: 306 ng/mL
bioavailability [36]: 20.9%
AUC(0-t) at 24 h [37]: 541 ng·h/mL
clearance [39]: 31.6 mL/min/kg
Activity [41]: Active
Structure (SMILES): COc1cc2c(O[C@@H]3O[C@@H]4CO[C@@H](c5ccsc5)O[C@H]4[C@H](O)[C@H]3O)c3c(c(-c4ccc5c(c4)OCO5)c2cc1OC)C(=O)OC3
inhibition [2]: Active
inhibition at 0.1 µM [4]: 64.7%
Activity [5]: Dose-dependent-effect; Showed Effective Suppression
IC50 [6]: 166 nM
Activity [7]: Dose-dependent-effect; Showed Effective Suppression
Activity [8]: 4.68%
IC50 [9]: 2.8 nM
IC50 [10]: 298 nM
inhibition at 0.1 µM [11]: 65.5%
IC50 [12]: 7.44 nM
IC50 [13]: 77.8 nM
IC50 at 72 h [14]: > 10000 nM
IC50 [15]: 2.4 nM
IC50 [16]: 544 nM
IC50 [20]: 48.3 nM
IC50 [21]: 45.5 nM
inhibition in vivo at 0.6 mg/kg [22]: 23.3%
IC50 [23]: 283 nM
IC50 [24]: 405 nM
inhibition at 0.1 µM [25]: 81.5%
inhibition at 72 h, 0.1 µM [26]: 23.5%
IC50 [27]: 10.9 nM
IC50 [28]: 5.5 nM
Activity [29]: 46%
IC50 [30]: 4.37 nM
IC50 [31]: 9.34 nM
Activity [32]: 0.11%
inhibition at 0.1 µM [33]: 69.4%
Activity [34]: 3%
Activity [35]: Active
IC50 [38]: 20.7 nM
inhibition at 0.1 µM [40]: 76.3%
Activity [42]: 9.61%
Activity [43]: Non-toxic

AUC(0-t) at 24 h [1]: 3.56 ng·h/mL
Activity [3]: inactive
Cmax [17]: 160 ng/mL
half-life [18]: 6.48 min
Cmax [19]: 11.9 ng/mL
bioavailability [36]: 2.7%
AUC(0-t) at 24 h [37]: 43.6 ng·h/mL
clearance [39]: 409 mL/min/kg
Activity [41]: inactive
Structure (SMILES): COc1cc2c(O)c3c(c(-c4ccc5c(c4)OCO5)c2cc1OC)C(=O)OC3 [DIPHYLLIN]
inhibition [2]: Active
inhibition at 0.1 µM [4]: 23.3%
Activity [5]: Dose-dependent-effect
IC50 [6]: 1660 nM
Activity [7]: Dose-dependent-effect
Activity [8]: 0.08%
IC50 [9]: 343 nM
IC50 [10]: > 10000 nM
inhibition at 0.1 µM [11]: 9.52%
IC50 [12]: 2390 nM
IC50 [13]: 1370 nM
IC50 at 72 h [14]: > 10000 nM
IC50 [15]: > 10000 nM
IC50 [16]: > 10000 nM
IC50 [20]: > 10000 nM
IC50 [21]: > 10000 nM
inhibition in vivo at 0.6 mg/kg [22]: 42.2%
IC50 [23]: > 10000 nM
IC50 [24]: > 10000 nM
inhibition at 0.1 µM [25]: 13.7%
inhibition at 72 h, 0.1 µM [26]: 7.61%
IC50 [27]: 2040 nM
IC50 [28]: 1350 nM
Activity [29]: 33.3%
IC50 [30]: 2000 nM
IC50 [31]: 2210 nM
Activity [32]: 0.14%
inhibition at 0.1 µM [33]: 30.8%
Activity [34]: 0.07%
Activity [35]: Active
IC50 [38]: > 10000 nM
inhibition at 0.1 µM [40]: 16.6%
Activity [42]: 0.09%
